From patent US8362075B2, “Cyclohexyl sulphones for treatment of cancer” (Merck Sharp & Dohme Corp., priority 2005, dated 2013)

Test system: Cells expressing Notch (ALL-SIL, DND-41, HPB-ALL or TALL-1)
Assay: Assay for Cell Cycle Arrest (propidium iodide, FACS)
Type: cell-based
Settings: concentrations up to 10 μM, incubation typically 4-8 days
Experimental: Assay for Cell Cycle Arrest Cells expressing Notch (ALL-SIL, DND-41, HPB-ALL or TALL-1) (Weng et al, Science, 306 (2004), 269-71) were incubated in the presence or absence of a compound of the instant invention (e.g. the compound of Example 39 below) at concentrations up to 10 μM. At the end of the incubation (typically 4-8 days), the cells were collected, fixed in 70% ethanol on ice for >2 hours, washed, then labelled for 15 min at 37° C. with propidium iodide (0.2 mg/ml) (PI) in the presence of 0.1% Triton X100 and 0.2 mg/ml RNase and subjected to FACS analysis. […] Assay for Apoptosis

Question: How did the “cell cycle populations versus untreated controls” value turn out when `O=C(O)CC[C@H]1CC[C@@](c2cc(F)ccc2F)(S(=O)(=O)c2ccc(Cl)cc2)CC1` [Example 39, cis-4-[(4-chlorophenyl)sulfonyl]-4-(2,5-difluorophenyl)cyclohexanepropanoic acid] was run?
Answer: The value was “severe loss of G2- and S-phase populations, consistent with G0/G1 arrest”.
